target: human DP2 (Homo sapiens (Human), UniProt Q9Y5Y4); assay: DP-2 Binding Inhibition Assay (3H-PGD2 binding to membranes of K562 cells expressing DP2); details: read-out: EC50 (Nm) 1% HSA; inhibition of 3H-PGD2 binding, 1% HSA
Outline: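 Membranes from K562 stably expressing DP2, incubated 60 min at room temperature with ³H-PGD2 and compound in Tris pH 7.4 buffer with 0.1% BSA, 1% HSA or 4% HSA; filtration read-out. Nonspecific binding: 1 μM unlabeled PGD2 or 5 μM known antagonist. EC50 from 4-parameter logistic fit.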

Chain of human DP2 (Q9Y5Y4 whole entry): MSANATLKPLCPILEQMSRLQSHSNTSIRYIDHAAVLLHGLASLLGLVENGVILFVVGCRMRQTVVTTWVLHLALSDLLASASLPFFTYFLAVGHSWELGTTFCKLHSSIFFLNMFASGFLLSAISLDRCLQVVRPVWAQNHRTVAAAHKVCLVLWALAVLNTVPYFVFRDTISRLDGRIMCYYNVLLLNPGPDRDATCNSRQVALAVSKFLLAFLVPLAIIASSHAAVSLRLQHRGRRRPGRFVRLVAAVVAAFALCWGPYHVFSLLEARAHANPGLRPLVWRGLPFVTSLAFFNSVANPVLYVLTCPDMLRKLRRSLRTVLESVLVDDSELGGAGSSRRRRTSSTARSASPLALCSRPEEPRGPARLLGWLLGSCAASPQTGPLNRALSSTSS

N#Cc1cc2c(cc1Oc1ccc(C(=O)NC3CC3c3ccc(Cl)cc3)cc1)OCCC2C(=O)O (stereo not shown) [Example 51, 7-(4-((2-(4-Chlorophenyl)cyclopropyl)carbamoyl)phenoxy)-6-cyano-3,4-dihydro-2H-chromene-4-carboxylic acid] was tested. Which EC50 did it give?
The EC50 was 12.1 nM.

For N#Cc1cc2c(cc1Oc1ccc(C(=O)NCc3cccc4ccccc34)cc1)OCCC2C(=O)O (stereo not shown) [Example 54, 6-Cyano-7-(4-(naphthalen-1-ylmethylcarbamoyl)phenoxy)chroman-4-carboxylic acid], which EC50 is on record?
Its EC50 is 109 nM.

same assay, conditions: read-out: EC50 (nM) 4% HSA; inhibition of 3H-PGD2 binding, 4% HSA

O=C(NCCc1ccc(Cl)cc1Cl)c1ccc(Oc2c(C3CC3)cc3c(c2C2CC2)OCCC3C(=O)O)cc1 (stereo not shown) [Example 40, Sodium 6,8-dicyclopropyl-7-(4-(2,4-dichlorophenethylcarbamoyl)phenoxy)chroman-4-carboxylate] was tested. Which EC50 did it give?
The EC50 was 42.2 nM.

Which EC50 does the source give for Cc1cccc(-c2cccc(NC(=O)c3ccc(Oc4cc5c(cc4C#N)C(C(=O)O)CCO5)cc3)c2)c1C (stereo not shown) [Example 109, 6-Cyano-7-(4-(2′,3′-dimethylbiphenyl-3-ylcarbamoyl)phenoxy)chroman-4-carboxylic acid] here?
Its EC50 is 104 nM.

O=C(NC1CCC(c2ccccc2)C1)c1ccc(Oc2cc3c(cc2Cl)C(C(=O)O)CCO3)cc1 (stereo not shown) [Example 165, 6-chloro-7-(4-(3-phenylcyclopentylcarbamoyl)phenoxy)chroman-4-carboxylic acid] was tested. Which EC50 did it give?
The EC50 was 401 nM.

Which EC50 does the source give for O=C(NCCCc1ccc(Cl)cc1)c1ccc(Oc2cc3c(cc2Cl)C(C(=O)O)CCO3)cc1 (stereo not shown) [Example 77, Sodium 6-chloro-7-(4-(3-(4-chlorophenyl)propylcarbamoyl)phenoxy)chroman-4-carboxylate] here?
The EC50 was 356 nM.

For O=C(NCCc1ccc2c(c1)OCO2)c1ccc(Oc2cc3c(cc2Cl)C(C(=O)O)CCO3)cc1 (stereo not shown) [Example 110, Sodium 7-(4-(2-(benzo[d][1,3]dioxol-5-yl)ethylcarbamoyl)phenoxy)-6-chlorochroman-4-carboxylate], which EC50 is on record?
Its EC50 is 607 nM.

For N#Cc1cc2c(cc1Oc1ccc(C(=O)NCC3Cc4ccccc4C3)cc1)OCCC2C(=O)O (stereo not shown) [Example 126, 6-Cyano-7-(4-((2,3-dihydro-1H-inden-2-yl)methylcarbamoyl)phenoxy)chroman-4-carboxylic acid], which EC50 is on record?
The EC50 was 179 nM.

N#Cc1cc2c(cc1Oc1ccc(C(=O)NC3CC3c3ccc(Cl)cc3)cc1)OCCC2C(=O)O (stereo not shown) [Example 51, 7-(4-((2-(4-Chlorophenyl)cyclopropyl)carbamoyl)phenoxy)-6-cyano-3,4-dihydro-2H-chromene-4-carboxylic acid] was tested. Which EC50 did it give?
Its EC50 is 14.8 nM.

For COc1ccc(Br)cc1CCNC(=O)c1ccc(Oc2cc3c(cc2Cl)C(C(=O)O)CCO3)cc1 (stereo not shown) [Example 90, Sodium 7-(4-(5-bromo-2-methoxyphenethylcarbamoyl)phenoxy)-6-chlorochroman-4-carboxylate], which EC50 is on record?
The EC50 was 153 nM.

Which EC50 does the source give for O=C(NC1CCN(c2cccc(C(F)(F)F)c2)CC1)c1ccc(Oc2cc3c(cc2Cl)C(C(=O)O)CCO3)cc1 (stereo not shown) [Example 123, Sodium 6-chloro-7-(4-(1-(3-(trifluoromethyl)phenyl)piperidin-4-ylcarbamoyl)phenoxy)chroman-4-carboxylate] here?
The EC50 was 259 nM.

With COc1ccccc1CCNC(=O)c1ccc(Oc2cc3c(cc2Cl)C(C(=O)O)CCO3)cc1 (stereo not shown) [Example 63, Sodium 6-chloro-7-(4-(2-methoxyphenethylcarbamoyl)phenoxy)chroman-4-carboxylate] as the molecule, how does the EC50 read?
The EC50 was 305 nM.

Which EC50 does the source give for CC(C)(C)C1CCC(NC(=O)c2ccc(Oc3cc4c(cc3C#N)C(C(=O)O)CCO4)cc2)CC1 (stereo not shown) [Example 127, 7-(4-(4-tert-Butylcyclohexylcarbamoyl)phenoxy)-6-cyanochroman-4-carboxylic acid] here?
The EC50 was 270 nM.

How did the EC50 turn out when O=C(NCCc1cc(Cl)ccc1Cl)c1ccc(Oc2cc3c(cc2Cl)C(C(=O)O)CCO3)cc1 (stereo not shown) [Example 103, Sodium 6-chloro-7-(4-(2,5-dichlorophenethylcarbamoyl)phenoxy)chroman-4-carboxylate] was run?
The EC50 was 392 nM.

With O=C(NCCc1ccc(Cl)cc1)c1ccc(Oc2c(Cl)cc3c(c2Br)OCCC3C(=O)O)cc1 (stereo not shown) [Example 38, Sodium 8-bromo-6-chloro-7-(4-(4-chlorophenethylcarbamoyl)phenoxy)chroman-4-carboxylate] as the molecule, how does the EC50 read?
Its EC50 is 366 nM.

Which EC50 does the source give for O=C(NCCc1cccc2ccccc12)c1ccc(Oc2cc3c(cc2Cl)C(C(=O)O)CCO3)cc1 (stereo not shown) [Example 86, Sodium 6-chloro-7-(4-(2-(naphthalen-1-yl)ethylcarbamoyl)phenoxy)chroman-4-carboxylate] here?
Its EC50 is 126 nM.
